Assay results taken from publication PMC3735939, “The low levels of eicosapentaenoic acid in rat brain phospholipids are maintained via multiple redundant mechanisms” (Journal of Lipid Research, 2013).

Tests used:
[1] = Brain unesterified FA concentrations (GC-MS; EPA by LC-MS/MS) in vehicle- or MEP-treated rats; type: in vivo, rat; conditions: MEP vs vehicle
Procedure: At 15 weeks of age, 16 rats were randomized to receive vehicle or 10 mg/kg MEP via tail vein catheter as described above. […] Brain hemispheres were homogenized in ethanol to yield a concentration of 100 mg tissue/ml. The unesterified FAs from 100 mg of brain tissue were isolated. The unesterified FA bands were collected and extracted twice from silica by hexane:isopropanol (3:2 by volume) with 5.5% water. […] The mixtures were shaken for 15 min and dried down with nitrogen gas. FA-PFB esters (FAPEs) were reconstituted in 100 μl hexane for GC-MS analysis as described below. For measurements of unesterified EPA, brain samples were homogenized in ethanol on ice. An aliquot of 100 mg tissue was spiked with ARA-d8 (20 ng; Cayman Chemical, Ann Arbor, MI) and dried under nitrogen gas in reduced light conditions. Residues were dissolved in ethanol, acidified to pH 4 with 1 N HCl, and extracted three times with ethyl acetate. After washing to neutrality with water, the ethyl acetate fraction was dried under nitrogen and transferred to siliconized minivials for liquid chromatography-tandem mass spectrometry (LC-MS/MS) analysis as described below. Brain unesterified EPA was detected using an Agilent HPLC 1200 equipped with a Zorbax SB-Phenyl column. HPLC solvent contained 4 μl/l propionic acid. The initial conditions of elution were set at 400 μl/min gradient system consisting of (A) water and (B) acetonitrile. […] Mass spectrometry analyses were carried out on API5500 triple quadruple mass spectrometer (AB SCIEX, Concord, ON, Canada). The QTRAP analyses were conducted in electrospray ionization negative ion mode. The turbospray temperature was set to 500°C and the ion spray voltage to 4,500 V. The collision energy, declustering potential, and collision cell exit potential were optimized and were set to 15, 50, and 11, respectively. Concentration was quantified by comparing the deuterium-to-protium ratio of brain unesterified EPA with standard lines generated from authentic standards. Authentic standards in appropriate dilutions (0.002-2 ng) were prepared and analyzed simultaneously with brain samples. The lower limit of quantification (LLQ) was 0.002 ng (6.3 fmol of […] identified with an Agilent 7890A gas chromatograph (Agilent Technologies) equipped with a SP-2380 (Supelco) fused silica column (Agilent Technologies; 30 m × 0.25 mm I.D. × 0.2 μm film thickness) and an Agilent 5975C quadruple mass spectrometry detector (Agilent Technologies). The sample was injected in split mode (10:1). The injection port temperature was set to 240°C and the ionization mode was set to negative chemical ionization using methane. FAPEs were eluted using a temperature program initially set at 150°C for 1 min, increase at 12°C/min to 270°C, and then at 40°C/min to 275°C for 3 min. […]

[2] = tested on: mitochondrial FA β-oxidation; experiment: Radioactivity in brain aqueous fraction (marker of β-oxidation) after 5 min intravenous 14C-tracer infusion; type: in vivo, rat; conditions: MEP 10 mg/kg iv 10 min before infusion

CCCCCCCCCCCCCCC1(C(=O)OC)CO1 (stereo not shown) [MEP, methyl-2-tetradecylglycidate, reference compound]
fold increase in brain unesterified EPA [1]: 1.3 fold | fold increase in brain unesterified linoleate (18:2n-6) [1]: 1.4 fold | fold increase in brain unesterified palmitate [1]: 2.5 fold | fold increase in brain unesterified α-linolenate (18:3n-3) [1]: 1.5 fold | reduction of radioactivity in brain aqueous fraction ([2]; 14C-DHA-infused rats): 23% | reduction of radioactivity in brain aqueous fraction ([2]; 14C-EPA-infused rats): 54% | reduction of radioactivity in brain aqueous fraction ([2]; 14C-palmitate-infused rats): 74%
